Data on four compounds can be found in patent US9018258B2, “Substituted 1-benzylcycloalkylcarboxylic acids and the use thereof” (Bayer Intellectual Property GmbH, priority 2010, dated 2015).

Where only a bound is given, the exact number is not on record here.

In one test the test system is saphenous artery. The test can be described thus: Vasorelaxant effect in vitro (phenylephrine-contracted saphenous artery rings). Also noted: species or system Rabbits. The following applies: Oryctolagus cuniculus; rabbit saphenous artery rings, phenylephrine-induced contraction. The protocol: Rabbits are anaesthetized and sacrificed by intravenous injection of thiopental sodium (about 50 mg/kg) and exsanguinated. The saphenous artery is removed and divided into rings 3 mm wide. the rings are mounted singly on in each case a pair of triangular hooks open at the end and made of 0.3 mm-thick special wire (Remanium®). Each ring is placed under an initial tension in 5 ml organ baths with Krebs-Henseleit solution which is at 37° C., is gassed with carbogen and has the following composition: NaCl 119 mM; KCl 4.8 mM; CaCl2×2 H2O 1 mM; MgSO4×7 H2O 1.4 mM; KH2PO4 1.2 mM; NaHCO3 25 mM; glucose 10 mM; bovine serum albumin 0.001%. The force of contraction is detected with Statham UC2 cells, amplified and digitized via A/D converters (DAS-1802 HC, Keithley Instruments, Munich) and recorded in parallel on chart recorders. Contractions are induced by addition of phenylephrine.
After several (generally 4) control cycles, the substance to be investigated is added in each further run in increasing dosage, and the level of the contraction achieved under the influence of the test substance is compared with the level of the contraction reached in the last preceding run. The concentration necessary to reduce the contraction reached in the preceding control by 50% is calculated from this (IC50). The standard application volume is 5 μl. The proportion of DMSO in the bath solution corresponds to 0.1%.

A further test has as its target T1, GAL4-PPARδ (Homo sapiens, UniProt Q03181).
T1 construct: PPARδ (amino acids 138-442); expressed in transfected cells
T1 sequence (Q03181 138-441 limits assumed): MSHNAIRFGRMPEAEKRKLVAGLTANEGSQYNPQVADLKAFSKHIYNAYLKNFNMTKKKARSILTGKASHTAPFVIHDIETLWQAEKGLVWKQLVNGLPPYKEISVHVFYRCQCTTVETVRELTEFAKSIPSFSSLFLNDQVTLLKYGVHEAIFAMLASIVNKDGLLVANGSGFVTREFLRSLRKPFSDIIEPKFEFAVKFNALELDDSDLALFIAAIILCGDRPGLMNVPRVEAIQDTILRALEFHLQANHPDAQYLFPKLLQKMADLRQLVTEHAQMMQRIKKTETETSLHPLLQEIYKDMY
Nature of the test: Cellular PPAR transactivation assay, GAL4-PPARδ chimera in CHO-K1 cells. The class given is cell-based. The following applies: for Emax: CHO-K1, maximum effect relative to reference compound (Example 73 of EP 1 452 521-A1 = 100%), read-out: PPARδ efficacy; for EC50: CHO-K1 cells, luciferase reporter, 6 h stimulation. The procedure, abridged:
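CHO-K1 cells stably expressing GAL4 DNA-binding domain fused to the human PPAR ligand-binding domain (α aa 167-468, γ aa 203-506, δ aa 138-442) plus a GAL4-driven firefly luciferase reporter. Compounds added in serum-free medium for 6 h; EC50 from luminescence curves. Efficacy in % of a pan-PPAR agonist reference set as 100%.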
In general terms: A reporter such as luciferase makes a cellular process visible.

The target of another test is T2, Haem-containing sGC (Rattus norvegicus, UniProt P20595).
T2 construct: made in house; host or cells: Sf9 insect cells (baculovirus)
T2 sequence (P19686 whole entry partner): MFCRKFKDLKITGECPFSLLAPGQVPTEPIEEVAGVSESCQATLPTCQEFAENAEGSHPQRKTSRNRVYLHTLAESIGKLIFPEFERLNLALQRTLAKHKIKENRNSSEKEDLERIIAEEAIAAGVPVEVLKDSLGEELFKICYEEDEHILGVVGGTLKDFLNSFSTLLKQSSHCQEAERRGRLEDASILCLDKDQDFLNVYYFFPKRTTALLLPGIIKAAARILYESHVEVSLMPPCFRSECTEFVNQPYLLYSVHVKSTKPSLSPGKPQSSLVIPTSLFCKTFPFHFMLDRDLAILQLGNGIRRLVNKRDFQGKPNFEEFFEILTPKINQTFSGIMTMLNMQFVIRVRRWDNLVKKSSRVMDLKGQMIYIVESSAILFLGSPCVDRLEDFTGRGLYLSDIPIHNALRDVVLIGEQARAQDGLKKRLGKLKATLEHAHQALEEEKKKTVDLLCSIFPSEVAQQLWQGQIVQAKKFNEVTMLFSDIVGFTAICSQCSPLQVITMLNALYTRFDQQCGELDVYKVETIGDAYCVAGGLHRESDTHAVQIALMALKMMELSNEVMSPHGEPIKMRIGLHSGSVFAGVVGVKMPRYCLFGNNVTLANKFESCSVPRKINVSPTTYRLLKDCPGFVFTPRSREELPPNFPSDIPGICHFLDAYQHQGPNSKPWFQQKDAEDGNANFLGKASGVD
T2 sequence (P20595 whole entry): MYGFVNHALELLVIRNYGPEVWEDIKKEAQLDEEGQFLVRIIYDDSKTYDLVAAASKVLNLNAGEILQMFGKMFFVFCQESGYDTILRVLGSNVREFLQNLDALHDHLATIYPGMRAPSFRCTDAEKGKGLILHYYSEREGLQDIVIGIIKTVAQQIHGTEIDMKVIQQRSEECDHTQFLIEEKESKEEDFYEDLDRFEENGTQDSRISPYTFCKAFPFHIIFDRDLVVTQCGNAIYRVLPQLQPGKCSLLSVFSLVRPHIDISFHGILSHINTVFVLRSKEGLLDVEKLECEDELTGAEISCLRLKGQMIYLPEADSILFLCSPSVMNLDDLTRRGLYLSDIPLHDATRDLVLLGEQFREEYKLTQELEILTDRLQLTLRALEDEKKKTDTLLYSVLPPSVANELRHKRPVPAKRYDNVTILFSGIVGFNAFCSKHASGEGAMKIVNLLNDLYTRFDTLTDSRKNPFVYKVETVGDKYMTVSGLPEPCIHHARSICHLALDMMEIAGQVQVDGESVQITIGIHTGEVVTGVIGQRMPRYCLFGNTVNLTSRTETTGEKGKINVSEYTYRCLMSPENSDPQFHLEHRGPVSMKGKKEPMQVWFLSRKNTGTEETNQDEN
Nature of the test: Stimulation of recombinant soluble guanylate cyclase (sGC) in vitro, haem-containing enzyme. The test is classed as biochemical. From the text: Hoenicka, E. M. Becker, H. Apeler, T. Sirichoke, H. Schroeder, R. Gerzer and J.-P. Stasch, “Purified soluble guanylyl cyclase expressed in a baculovirus/Sf9 system: Stimulation by YC-1, nitric oxide, and carbon oxide”, J. Mol. Med. 77 (1999), 14-23. The haem-free guanylate cyclase is obtained by adding Tween 20 to the sample buffer (0.5% in the final concentration).
The activation of sGC by a test substance is reported as x-fold stimulation of the basal activity.

What is called IC50 is the concentration needed to halve the response being measured. Low values mean greater potency, high ones weaker potency. One may read the EC50 as the midpoint of the concentration-response curve. Higher therefore signals lower potency in that assay.

In the case of `CCOC(c1ccc(Cl)c(NC(=O)[C@H](c2ccc(Cl)cc2)[C@@H](C)C(F)(F)F)c1)C1(C(=O)O)CC1` (single isomer, unassigned) [Example 101], the IC50 in the test with saphenous artery is 685 nM. Also, on GAL4-PPARδ, the Emax worked out at 0% and the EC50 is greater than 10 µM.

Consider `[2H]C([2H])([2H])OC(c1ccc(Cl)c(NC(=O)[C@H](c2ccc(Cl)cc2)[C@@H](C)C(F)(F)F)c1)C1(C(=O)O)CC1` (single isomer, unassigned; (+)) [Example 99], for which, on Haem-containing sGC (test substance 0.01 μM), the “Stimulation (x-fold) of recombinant sGC, +0.01 μM DEA/NO” value (from here on “Stimulation (x-fold) … +0.01 μM DEA/NO”) stood at 4.0 ± 0.6 x-fold; the “Stimulation (x-fold) of recombinant sGC, +10 μM ODQ” value (“Stimulation (x-fold) … +10 μM ODQ” for short) is recorded as 4.3 ± 0.4 x-fold; the “Stimulation (x-fold) of recombinant sGC, Basal” value (“Stimulation (x-fold) … Basal” below) came out at 1.0 ± 0.0 x-fold. In addition, at Haem-containing sGC (test substance 0.1 μM), the “Stimulation (x-fold) … +0.01 μM DEA/NO” value came to 4.4 ± 0.8 x-fold; the “Stimulation (x-fold) … +10 μM ODQ” value is recorded as 5.7 ± 0.3 x-fold; the “Stimulation (x-fold) … Basal” value was found to be 1.5 ± 0.2 x-fold. In addition, at Haem-containing sGC (test substance 1.0 μM), the “Stimulation (x-fold) … +0.01 μM DEA/NO” value was 5.0 ± 1.7 x-fold; the “Stimulation (x-fold) … +10 μM ODQ” value was 9.2 ± 0.9 x-fold; the “Stimulation (x-fold) … Basal” value is recorded as 1.8 ± 0.3 x-fold. In addition, on Haem-containing sGC (test substance 10 μM), the “Stimulation (x-fold) … +0.01 μM DEA/NO” value is on record as 5.3 ± 1.8 x-fold; the “Stimulation (x-fold) … +10 μM ODQ” value was 10.3 ± 1.3 x-fold; the “Stimulation (x-fold) … Basal” value is 2.6 ± 0.4 x-fold. On Haem-containing sGC, the “Effect of combination with DEA/NO (NO donor) on sGC stimulation” value is on record as “no synergistic effect”. For the same compound, on GAL4-PPARδ, the Emax worked out at 0% and the EC50 was greater than 10 µM.

Consider `C[C@H]([C@H](C(=O)Nc1cc(CC2(C(=O)O)CC2)ccc1Cl)c1ccc(Cl)c(F)c1)C(F)(F)F` [Example 30, (+)-1-(4-chloro-3-{[(2S,3R)-2-(4-chloro-3-fluoro-phenyl)-4,4,4-trifluoro-3-methylbutanoyl]amino}-benzyl)cyclopropanecarboxylic acid], for which the midpoint of inhibition in the test with saphenous artery, the IC50, lay at 606 nM. On GAL4-PPARδ, the Emax amounted to 0% and the EC50 was greater than 10 µM.

Consider `C[C@H]([C@H](C(=O)Nc1cc(CC2(C(=O)O)CC2)ccc1Cl)c1ccc(Cl)cc1)C(F)(F)F` [Example 50, (+)-1-(4-Chloro-3-{[(2S,3R)-2-(4-chlorophenyl)-4,4,4-trifluoro-3-methylbutanoyl]amino}benzyl)-cyclopropanecarboxylic acid], for which the “Stimulation (x-fold) … +0.01 μM DEA/NO” value on Haem-containing sGC (test substance 0.01 μM) stood at 7.5 ± 1.8 x-fold; on Haem-containing sGC (test substance 0.1 μM), 7.6 ± 1.8 x-fold; on Haem-containing sGC (test substance 1.0 μM), 9.0 ± 2.0 x-fold; on Haem-containing sGC (test substance 10 μM) it was 13.3 ± 2.2 x-fold; at Haem-containing sGC (test substance 100 μM), 14.6 ± 2.2 x-fold. Also, the “Stimulation (x-fold) … +10 μM ODQ” value is recorded as 9.2 ± 1.4 x-fold on Haem-containing sGC (test substance 0.01 μM); 9.6 ± 1.5 x-fold at Haem-containing sGC (test substance 0.1 μM); 12.7 ± 1.5 x-fold on Haem-containing sGC (test substance 1.0 μM); 21.5 ± 2.2 x-fold at Haem-containing sGC (test substance 10 μM); 22.6 ± 2.6 x-fold on Haem-containing sGC (test substance 100 μM). Moreover, the “Effect of combination with DEA/NO (NO donor) on sGC stimulation” value at Haem-containing sGC is on record as “no synergistic effect”. Further, the “Stimulation (x-fold) … Basal” value at Haem-containing sGC (test substance 0.01 μM) was 1.4 ± 0.1 x-fold; on Haem-containing sGC (test substance 0.1 μM), 1.2 ± 0.1 x-fold; on Haem-containing sGC (test substance 1.0 μM) it was 2.6 ± 0.4 x-fold; at Haem-containing sGC (test substance 10 μM) it was 6.4 ± 0.6 x-fold; at Haem-containing sGC (test substance 100 μM), 9.5 ± 0.9 x-fold. This compound also displayed an IC50 in the test with saphenous artery of 145 nM. Besides, the Emax at GAL4-PPARδ was 0%. Further, the EC50 on GAL4-PPARδ is greater than 10 µM.
